Test results: US11339124B2, “3-(benzylamino)-4-(cyclohexylamino)-n-(2-(piperazin-1-yl)ethyl)benzenesulfonamide derivatives and related ferrostatin-1 analogues as cell death inhibitors for treating e.g. stroke” (VIB VZW, priority 2018, dated 2022)
“Also recorded” adds a separate entry of the source.

Legend:
[1] = Plasma stability, mouse plasma; format: in vitro ADME; conditions: 37° C., remaining parent compound, read-out: Plasma stability (% recovery after 6 h), Mouse
Experimental: (§1) 5 μl of a 10 mM stock solution of the compound in DMSO was added to 995 μl of plasma to obtain a 50 μM final solution. The mixture was gently shaken for 6 h at 37° C. Aliquots of 100 μl were taken at various time points (0, 0.5 h, 1 h, 2 h, 3 h and 6 h) and diluted with 400 μl of cold methanol (stored at 4° C.). The suspension was centrifuged at 14000 rpm for 5 min. 50 μl of the supernatant was diluted with 950 μl of methanol and analysed with LC/MS/MS. The samples were analysed in triplicate. The experiment was done in duplicate. […] Enalapril maleate was used as a control in mice, rats, and in human.

[2] = Microsomal (metabolic) stability, rat liver microsomes; conditions: for CLint scaled at 10 µM / half-life at 10 µM: rat
Description: (§2) By using the measured microsomal in vitro t1/2, a calculated value for the intrinsic clearance Clint can be determined. This value states the measure in which a drug that is not bound to plasma proteins is irreversibly removed from the body by the liver. This value is expressed in mL/min/kg which can be interpreted as the volume of blood in mL that is cleared of a drug per minute per kilogram of body weight. The CLint is less sensitive to used variables in ADME assays since the amount of microsomal protein and the volume of the incubation are all taken into account. (Sohlenius-Sternbeck et al., Xenobiotica, 2012, 42, 841-853)
(§3) Liver microsomes (20 mg protein/ml), NADPH regenerating system solutions A & B and 5 mM stock compound solution (100% DMSO) are prepared. The reaction mixture finally contains 713 μL purified water, 200 μL 0.5 M potassium phosphate pH 7.4, 50 μL NADPH regenerating system solution A (BD Biosciences Cat. No. 451220), 10 μL NADPH regenerating system solution B (BD Biosciences Cat. No. 451200) and 2 μL of the compound stock solution (10 μM final concentration). The reaction mixture is warmed to 37° C. for 5 minutes in a water bath and the reaction is initiated by addition of 25 μL of liver microsomes (0.5 mg protein/ml final concentration). At different time points (0 min-15 min-30 min-60 min-120 min-240 min-360 min-24 h), 20 μL is withdrawn and 80 μL cold acetonitrile is added on ice for 10 minutes. Then the mixtures are centrifuged at 13 000 rpm for 5 min at 4° C. The supernatant is further diluted in 90% water/MeCN (1/25) to fall within the range of the LC/MS/MS analysis. At each time point, the compound is analysed using LC/MS/MS with the same UPLC system as described above. A standard curve of six points was made to fit the measured concentrations. Verapamil was used as a positive control.
(§4) All obtained readouts were processed using Microsoft Excel. In order to determine the microsomal half-life t1/2 of the compounds, the rate constant k was determined by plotting the exponential decay graphs using GraFit. Microsomal t1/2 was determined using the following formula: […]

[3] = Plasma stability, human plasma; format: in vitro ADME; conditions: 37° C., remaining parent compound, read-out: Plasma stability (% recovery after 6 h), Human
Experimental: as §1

[4] = Kinetic solubility (turbidimetric method); format: physicochemical; conditions: 10 mM PBS pH 7.4, 2% DMSO, test range 3.125-200 μM, 2 h at 37° C.
Experimental: A turbidimetric method was used. First a series of DMSO compound stock solutions was prepared ([…]). An aliquot of 4 μL stock solution was added to 196 μL PBS buffer (pH 7.4). A series of concentrations were prepared (3.13-200 μM), including a blank on a microtiter plate. (2% DMSO-D6) The microtiter plate was shaken for 10 seconds and incubated for 2 hours at 37° C. When there was no turbidity measured at a given concentration the sample was assumed to be dissolved.

[5] = Microsomal (metabolic) stability, human liver microsomes; conditions: for CLint scaled at 10 µM / half-life at 10 µM: human, liver microsomes; for CLint scaled at 10 µM: pH 7.4; for half-life at 10 µM: pH 7.4, Microsomal stability (t1/2); for half-life at 10 µM / Microsomal stability (t1/2), Human: human liver microsomes, 0.5 mg protein/ml, 10 μM compound, 37° C.; for Microsomal stability (t1/2), Human: Hydrochloride
Description: as §2, §3, §4

[6] = Pharmacokinetics and tissue distribution after single-dose iv injection in mice; format: in vivo; conditions: single-dose iv injection (~10 mg/kg)
[7] = system: acute iron poisoning induced organ damage; assay: Acute iron poisoning (FeSO4) induced organ damage, plasma LDH and creatine kinase; format: in vivo; conditions: for Protection against organ damage: plasma lactate dehydrogenase (LDH) and creatine kinase levels, prophylactic setting: ~10 mg/kg iv 15 min before FeSO4 300 mg/kg ip, plasma 2 h after challenge (FIG. 5A); for Protection against organ damage: plasma lactate dehydrogenase (LDH) and creatine kinase levels, therapeutic setting: ~10 mg/kg iv 30 min after FeSO4 300 mg/kg ip, plasma 8 h after challenge (FIG. 5B)
Experimental: Equimolar amounts of ferroptosis inhibitors (˜10 mg/kg) were injected iv 15 min before ip injection of FeSO4 (300 mg/kg). Plasma was collected 2 h after FeSO4-challenge and analyzed for the presence of lactate dehydrogenase (LDH) and creatine kinase. Fer-1 is ferrostatin, 3234 is compound 37,3206 is compound 38 and 3203 is compound 39 (see Table 1 for numbering and structure). […] Equimolar amounts of ferroptosis inhibitors (˜10 mg/kg) were injected iv 30 min after ip injection of FeSO4 (300 mg/kg). Plasma was collected 8 h after FeSO4-challenge and analyzed for the presence of lactate dehydrogenase (LDH) and creatine kinase.
We identified acute iron poisoning as a novel experimental model for in rhabdomyolysis-induced kidney failure.

[8] = system: experimental autoimmune encephalomyelitis model; assay: Experimental autoimmune encephalomyelitis (EAE) model, therapeutic intervention; format: in vivo; conditions: C57BL/6N male mice, daily ip from clinical score 2, scale 0 to 6 (FIG. 6); Hydrochloride
Experimental: 9-10-week-old C57BL/6N male mice were immunized subcutaneously with an emulsion of (MOG) 35-55 peptide (10 mg/kg) and CFA supplemented with Mycobacterium tuberculosis H37RA (50 mg/kg). The mice received an intraperitoneal injection of pertussis toxin (5 ug/kg) at the time of immunization and 48 h later. In a therapeutic procedure, mice that reached the clinical sore of 2 were injected intraperitoneally every day with equimolar amounts of Fer-1, compound 39, Liproxtatin-1 or vehicle (˜1-mg/kg) and were scored daily. Clinical signs of disease were scored on a scale of 0 to 6, as follows: 0, normal; 1, weakness of tail; 2, complete loss of tail tonicity; 3, partial hind limb paralysis; 4, complete hind limb paralysis; 5, forelimb paralysis or moribund; and 6, death (McGuire C et al (2013) J. Immunol. 190(6): 2896).
Experimental autoimmune encephalomyelitis (EAE) is an experimental mouse for multiple sclerosis.

[9] = liver microsomes, pH 7.4, Microsomal stability (t1/2), rat liver microsomes, 0.5 mg protein/ml, 10 μM compound, 37° C.

Row | Compound | recovery at 6 h, 50 μM [1] [%] | CLint scaled at 10 µM ([2]; liver microsomes, pH 7.4) [mL/min/kg] | half-life at 10 µM [2, 9] [h] | recovery at 6 h, 50 μM [3] [%] | Solubility (kinetic) [4] [µM] | CLint scaled at 10 µM [5] [mL/min/kg] | half-life at 10 µM [5] [h] | Levels in blood [6] | Protection against organ damage: plasma lactate dehydrogenase (LDH) and creatine kinase levels, prophylactic setting [7] | Protection against organ damage: plasma lactate dehydrogenase (LDH) and creatine kinase levels, therapeutic setting [7] | half-life at 10 µM ([2]; microsomes, pH 7.4) [h] | Microsomal stability (t1/2), Human [5] [h] | Microsomal stability (t1/2), Rat ([2]; rat liver microsomes, 0.5 mg protein/ml, 10 μM compound, 37° C., Hydrochloride) [h] | Clinical disease scores during EAE pathology [8]
1 | CNCCNS(=O)(=O)c1ccc(NC2CCCCC2)c(NCc2ccccc2)c1.Cl [Compound 37, 3-(benzylamino)-4-(cyclohexylamino)-N-(2-(methylamino)ethyl)benzenesulfonamide Hydrochloride] | 100 | 161 ± 4.6 | 0.35 ± 0.01 | 90.3 | >200 | 1.7 ± 0.5 | 13.2 ± 4.1 | almost undetectable levels in blood | more effective | more effective |  |  |  | 
2 | Cl.NCCNS(=O)(=O)c1ccc(NC2CCCCC2)c(NCc2ccccc2)c1 [Compound 38, N-(2-aminoethyl)-3-(benzylamino)-4-(cyclohexylamino)benzenesulfonamide Hydrochloride] | 100 | 27.4 ± 2.7 |  | 100 | >200 | 1.3 ± 0.1 | 17.7 | almost undetectable levels in blood | more effective | more effective | 2.05 | 17.71 ± 2.04 |  | 
3 | Cl.O=S(=O)(NCCN1CCNCC1)c1ccc(NC2CCCCC2)c(NCc2ccccc2)c1 [Compound 39, 3-(benzylamino)-4-(cyclohexylamino)-N-(2-(piperazin-1-yl)ethyl)benzenesulfonamide Hydrochloride] | 100 | 3.4 ± 1 | 16.5 | 84.2 | >200 | 1.1 ± 0.3 | 20.5 | almost undetectable levels in blood | more effective | more effective |  | 20.53 ± 5.49 | 16.48 ± 4.66 | ameliorates clinical signs; also recorded: improved the clinical disease scores
